Test results published in patent US20240400638A1, “COMBINATION OF RELAXIN AND VASOPRESSIN ANALOGUES FOR TREATMENT OF RENAL DISORDERS OR CONDITIONS” (River 2 Renal Corp., priority 2021, published 2024).
Numbered stars: 1 amine (or outer) side, 2 acyl side, 3 side chain; on linkers, the order of the positions; unused ones are H or OH. Bridge positions count the residues as written; N and C are the ends. Square brackets hold non-standard residues; d marks the D form. Side chains are listed from the residue outwards. Peptide text beside a SMILES is read from it. * marks the point of attachment. X2 = CCCCCCCCCCCCCCCCCC(=O)N[C@@H](CCC(=O)N[C@@H](CCC(=O)N[C@@H](CCC(=O)NCCCOCCOCCOCCCNC(=O)CCC(=O)NCCCOCCOCCOCCCNC(=O)CCC(=O)NCCCOCCOCCOCCCNC(=O)CCC(=O)NCCCOCCOCCOCCCN*)C(=O)O)C(=O)O)C(=O)O; X1 = CCCCCCCCCCCCCCCC(=O)N[C@@H](CCC(=O)N[C@@H](CCC(=O)N[C@@H](CCC(=O)NCCCOCCOCCOCCCNC(=O)CCC(=O)NCCCOCCOCCOCCCNC(=O)CCC(=O)NCCCOCCOCCOCCCN*)C(=O)O)C(=O)O)C(=O)O; Suc = O=C(CCC(=O)[*:2])[*:1]; Aib = CC(C)(N)C(=O)O

Columns and labels:
[1] = cited from earlier work
[2] = biological target: T1, human RXFP1 (Homo sapiens, UniProt Q9HBX9); test: In vitro OVCAR5 cAMP assay (HTRF); assay type: cell-based; settings: OVCAR 5 cells (cAMP); for EC50: Table 2; for Emax: maximal cAMP relative to human relaxin-2, Table 2
T1 construct: OVCAR5 cells expressing endogenous human RXFP1; endogenous in cells; host or cells: OVCAR5 cells
T1 sequence (Q9HBX9 1-757): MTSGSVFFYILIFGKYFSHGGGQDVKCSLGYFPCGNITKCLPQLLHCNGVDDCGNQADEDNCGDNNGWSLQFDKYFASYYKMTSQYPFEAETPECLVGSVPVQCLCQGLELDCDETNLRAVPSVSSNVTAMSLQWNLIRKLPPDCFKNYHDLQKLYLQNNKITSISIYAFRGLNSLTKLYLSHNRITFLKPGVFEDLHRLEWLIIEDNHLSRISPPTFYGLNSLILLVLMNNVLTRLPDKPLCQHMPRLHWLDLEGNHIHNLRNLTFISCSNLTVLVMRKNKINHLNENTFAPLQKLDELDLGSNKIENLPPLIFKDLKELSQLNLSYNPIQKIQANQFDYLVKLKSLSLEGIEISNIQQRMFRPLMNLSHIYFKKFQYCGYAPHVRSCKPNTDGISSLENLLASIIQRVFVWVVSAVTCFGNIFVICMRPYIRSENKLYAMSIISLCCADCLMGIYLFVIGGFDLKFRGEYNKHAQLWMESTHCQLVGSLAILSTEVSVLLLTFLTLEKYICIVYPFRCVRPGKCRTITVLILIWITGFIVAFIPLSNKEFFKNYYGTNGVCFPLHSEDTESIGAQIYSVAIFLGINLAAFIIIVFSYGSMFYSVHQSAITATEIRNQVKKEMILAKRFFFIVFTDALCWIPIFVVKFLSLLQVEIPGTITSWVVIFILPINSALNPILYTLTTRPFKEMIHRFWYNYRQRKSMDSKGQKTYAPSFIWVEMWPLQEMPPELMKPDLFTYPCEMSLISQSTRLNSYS
Excerpt: OVCAR5 cells expressing endogenous human RXFP1 were used to test RXFP1 agonist properties of relaxin peptide analogues, and in particular of the peptides of sequence SEQ ID NO: 1-97.
Since RXFP1 is a Gs coupled GPCR, increases in cAMP was used as readout of RXFP1 activation.
Isobutyl methyl xanthine (IBMX) was used to inhibit phosphodiesterase activity facilitating cAMP measurements. HTRF (Homogenous Time Resolved Fluorescence) technology was used to detect cAMP due to its high sensitivity.
In summary, OVCAR5 were grown in regular medium (RPMI) containing 10% fetal calf serum (FCS) and 1% antibiotics (penicillin/streptomycin).
Before the experiments, cells were detached with accutase and incubated for 40 minutes at 37° C. with 1 mM (3-isobutyl-1-methylxanthine) IBMX.
Cells were then distributed in 384 black well plates containing increasing concentrations of the different peptides in a fix volume of medium (without FCS).
After an incubation of 30 min at 37° C. in a humid incubator in 5% CO2, the reaction was stopped by adding a fixed volume of a solution containing a lysis buffer and cAMP-D2 (cAMP labeled with the dye d2) and the anti-cAMP antibody linked to Europium and used for cAMP detection.
Readout of the experiment were performed on a fluorimeter allowing HTRF measurement. Activation curves were generated by plotting the intracellular value of cAMP versus log 10 of the compound concentration.
The 50% activation concentration (EC50) was calculated by nonlinear regression using the sigmoidal dose-response (variable slope) equation with Prism 5 software.
Emax % was determined as the maximal intracellular value of cAMP for test compound (upper limit of cAMP vs concentration curve) divided by the maximal intracellular value of cAMP for human relaxin-2 (H2-R1x) determined in the same test occasion multiplied by 100.

Structure (SMILES) | mortality ([1]; at 3 months, patients receiving terlipressin and standard of care (e.g., albumin), Wong et al. 2021) | patients requiring discontinuation of treatment for severe side effects ([1]; human, in vivo) | patients with side effects ([1]; human, in vivo) | EC50 [2] | Emax [2]
NCCCC[C@H](NC(=O)[C@@H]1CCCN1C(=O)[C@@H]1CSSC[C@H](NC(=O)CNC(=O)CNC(=O)CN)C(=O)N[C@@H](Cc2ccc(O)cc2)C(=O)N[C@@H](Cc2ccccc2)C(=O)N[C@@H](CCC(N)=O)C(=O)N[C@@H](CC(N)=O)C(=O)N1)C(=O)NCC(N)=O [terlipressin, Terlipressin] (H-GGGCYFQNCPKG-NH2; disulfide 4-9) | 51% | up to 10% | up to 40% |  | 
CCCCCCCCCCCCCCCC(=O)N[C@@H](CCC(=O)N[C@@H](CCC(=O)N[C@@H](CCC(=O)NCCCOCCOCCOCCCNC(=O)CCC(=O)NCCCOCCOCCOCCCNC(=O)CCC(=O)NCCCOCCOCCOCCCNC(=O)CCC(=O)NCCCC[C@H](NC(=O)CNC(=O)[C@H](CCC(=O)O)NC(=O)C(C)(C)NC(=O)C(C)(C)NC(=O)[C@@H](NC(=O)[C@H](CCCCNC(C)=O)NC(=O)C(C)(C)NC(=O)[C@H](CCCNC(=N)N)NC(=O)[C@@H](NC(=O)[C@H](CCCCN)NC(=O)[C@H](CCC(=O)O)NC(=O)[C@H](CCCNC(=N)N)NC(=O)CNC(=O)[C@H](CCC(=O)O)NC(=O)[C@H](CC(C)C)NC(C)=O)C(C)C)[C@@H](C)CC)C(=O)N[C@@H](CO)C(=O)N[C@H](C(=O)N[C@@H](Cc1c[nH]c2ccccc12)C(=O)N[C@@H](CO)C(=O)NC(C)(C)C(=O)N[C@@H](CCCNC(=N)N)C(=O)N[C@@H](C)C(=O)N[C@@H](CCCCNC(C)=O)C(N)=O)[C@@H](C)O)C(=O)O)C(=O)O)C(=O)O [compound 82] (Ac-LEGREKVR[Aib]K(Ac)I[Aib][Aib]EGK([Suc-X1])STWS[Aib]RAK(Ac)-NH2) |  |  |  | 0.54 nM | 95%
CCCCCCCCCCCCCCCCCC(=O)N[C@@H](CCC(=O)N[C@@H](CCC(=O)N[C@@H](CCC(=O)NCCCOCCOCCOCCCNC(=O)CCC(=O)NCCCOCCOCCOCCCNC(=O)CCC(=O)NCCCOCCOCCOCCCNC(=O)CCC(=O)NCCCOCCOCCOCCCNC(=O)CCC(=O)NCCCC[C@H](NC(=O)CNC(=O)[C@H](CCC(=O)O)NC(=O)C(C)(C)NC(=O)C(C)(C)NC(=O)[C@@H](NC(=O)[C@H](CCCCNC(C)=O)NC(=O)[C@H](C)NC(=O)[C@H](CCCNC(=N)N)NC(=O)[C@@H](NC(=O)[C@H](CCCCN)NC(=O)[C@H](CCC(=O)O)NC(=O)[C@H](CCCNC(=N)N)NC(=O)CNC(=O)[C@H](CCC(=O)O)NC(=O)[C@H](CC(C)C)NC(C)=O)C(C)C)[C@@H](C)CC)C(=O)N[C@@H](CO)C(=O)N[C@H](C(=O)N[C@@H](Cc1ccccc1)C(=O)N[C@@H](CO)C(=O)NC(C)(C)C(=O)N[C@@H](CCCNC(=N)N)C(=O)N[C@@H](CCCCN)C(=O)N[C@@H](CCCCNC(C)=O)C(N)=O)[C@@H](C)O)C(=O)O)C(=O)O)C(=O)O [compound 59] (Ac-LEGREKVRAK(Ac)I[Aib][Aib]EGK([Suc-X2])STFS[Aib]RKK(Ac)-NH2) |  |  |  | 0.09 nM | 99%
